From article PMC12767106, “In Situ Assembly of Transformable Monopeptide on Activated Neutrophils Attenuates NETs‐Induced Hepatocellular Carcinoma Metastasis by Disrupting NE Nuclear Translocation” (Advanced Science, 2025)

Assays:
activated neutrophils = experiment: CCK-8 cytotoxicity; type: cell-based, mouse; settings: CCK-8, 24 h, different dosages
Procedure: The supernatant was discarded, and the red blood cells were lysed with RBC lysate. The neutrophils were then washed with PBS again, and the supernatant was discarded. The cells were resuspended in culture medium and used for further experiments. […]
Briefly, FTP-NPs were prepared by self-assembly of peptidic nanomaterials and adjusted to various concentrations (0, 50, 100, 200, 400, 800, 1000 μg/mL). […]
(§1) 10 minutes to remove unbound particles, and the supernatant was collected. […]
(§2) In vitro cytotoxicity assay
(§3) The CCK-8 assay was used to assess the cell viability of Hepa1-6/luc, resting neutrophils, and activated neutrophils. Following the seeding of 1*10^4 cells per well on a 96-well plate, the cells were subjected to different dosages of FTP-NPs and NFTP-NPs (medium: DMSO = 99:1 v/v). After 24 hours, the cells were incubated for two hours with 10 µL of CCK-8 solution. Finally, a microplate reader (Tecan Infinite M200, Switzerland) was used to measure cell viability based on the absorbance values.
(§4) Targeting the capability of NEBP
(§5) To evaluate the targeting capability of NE-binding peptide (NEBP), the harvested resting neutrophils and […]

C166 endothelial cells = experiment: Matrigel tube formation assay; type: cell-based, mouse; settings: 6 h, versus Control and NFTP-NPs groups
Procedure: Matrigel tube formation assay
Murine C166 endothelial cells (3×10^4cells/well) were placed on 96-well plates coated with Matrigel (356231, Corning, New York, USA) and incubated with various treatments. After incubation for six h, capillary-like structures were observed and counted under a microscope (Axiovert 200, Zeiss, Germany). All the experiments […]
In vitro permeability assays and trans-endothelial invasion assays
For in vitro permeability assays, C166 cells were treated with Resting neutrophils, Control, NFTP-NPs, FTP-NPs, and NEi groups for 48 h to form an endothelial monolayer, and then Evans Blue (PHYGENE, China) was added to the upper layer of the transwell filters (0.4 μm, Corning). […]
All the experiments were performed thrice. […]

[1] = mouse, in vivo
[2] = tested on: Hepa1-6/luc murine HCC cells; experiment: CCK-8 cytotoxicity; type: cell-based, mouse; settings: CCK-8, 24 h, different dosages
Procedure: as §1, §2, §3, §4, §5

[3] = tested on: mice bearing Hepa1-6/luc tumors; experiment: Biodistribution by in vivo and ex vivo fluorescence imaging; set-up: species or system mouse
Procedure: To further evaluate the tumor tissue accumulation of FTP‐NPs in vivo, we conducted in vivo biodistribution studies using a murine model. For biodistribution studies, mice bearing Hepa1‐6/luc tumors were treated by NFTP‐NPs and FTP‐NPs via tail vein injection and monitored over time using an In‐Vivo system (IVIS, Figure 4a). After 12, 24, 48, and 168 h, tumors and major organs were collected for ex vivo fluorescence imaging (Figure S16a, Supporting Information). The fluorescence signal of the FTP‐NPs group was still detectable in tumor tissues after more than 3 days and lasted up to 7 days. In situ receptor‐mediated transformation of FTP‐NPs to NE‐fibril clusters in the tumor microenvironment may be responsible for the prolonged preservation of the fluorescence signal in FTP‐NPs‐treated mice, even after 7 days. […] The fluorescence signal of tumor tissue in the FTP‐NPs group at 48 h was 7.1‐fold higher than that in the NFTP‐NPs group (Figure S16b, Supporting Information).
Submitted to Advanced Science
Figure S16. Time-dependent ex vivo fluorescence (FL) images (a) and quantitative analysis (b) of tumor tissues and major organs (heart (H), liver (Li), spleen (Sp), lung (Lu), kidney (K), intestine(I), muscle (M), skin (Sk), and brain (B)) collected at 12, 24, 48, and 168 h post-injection of NFTP-NPs and FTP-NPs.
Figure S17. Gating strategy for T cell analysis. The tumor-bearing mice from each group were euthanized on day 20 post-treatment. Fifty thousand events were collected for each sample in the study. CD45+ cell counts determined the total T cell number, and CD8+ T cells were then gated within CD3+ T lymphocytes.
Figure S18. Corresponding flow cytometric quantification of CD8+T cells (CD45+CD3+CD8+, n = 3). Data are presented as mean ± s.d., n = 3 independent experiments. Statistical significance was calculated by one-way […]

[4] = Critical aggregation concentration, pyrene probe; type: physicochemical; settings: I3/I1 ratio, excitation 335 nm, 37 °C, 2 h, NPs 0.01-50 µM
Procedure: Submitted to Advanced Science temperature. Following the incubation, 10 µL of the solution was added to a copper mesh at 0 and 24 h. Filter paper was used to remove any extra droplets after an overnight stay. The samples were then stained for five minutes with uranyl acetate and then rinsed for one minute with water (10 µL). Finally, dried samples were observed by TEM (Talos 120C, Thermo Fisher Scientific, USA). DLS (Zetasizer Nano ZS, UK) was used to assess the solution for hydrodynamic size and zeta potential at 0 and 24 h following the incubation. Then, the nanofiber structure at 0 h and 24 h after incubation of FTP-NPs was examined with Circular Dichroism (CD) Spectra (Chirascan, UM, Britain). In addition, the variation of fluorescence emission spectra of PpIX by […]
transformation of FTP-NPs.
Pyrene molecules were employed as an indicator to determine the critical aggregation concentration (CAC) of nanoparticles by comparing the fluorescence of their third and first emissive peaks. […] The fluorescence spectra of pyrene (excitation, 335 nm) in different NPs dilutions were recorded. The fluorescence intensity ratio (I3/I1) of the third and first emissive peaks was measured for CAC calculation. […]

[5] = tail vein injection, IVIS imaging

Substance | survival rate (activated neutrophils) | number of tubular structures formed (C166 endothelial cells) | toxicity in mice (liver function, platelets, creatinine, blood cell count) [1] | survival rate [2] | fluorescence signal of tumor tissue relative to NFTP-NPs group ([3]; 48 h after tail vein injection, ex vivo imaging) [fold] | duration of fluorescence signal in tumor tissues [3, 5] | critical aggregation concentration (CAC) [4] [µM] | fluorescence signal in major organs by 72 h [3, 5]
PpIX-GFFVLK-EAIPMSIPPEVK [FTP-NPs] | over 95% | significantly lower | nontoxic | over 95% | 7.1 | up to 7 days | 5.45 | 
PpIX-GGGAAK-EAIPMSIPPEVK [NFTP-NPs, nanoparticles of the non-fibrillar transformable control peptide NFTP] |  |  |  |  |  |  | 3.75 | essentially undetectable
